Data on one compound can be found in US20220193025A1, “USE OF DIANHYDROHEXITOL TO ELIMINATE THE COSMETIC EFFECTS OF ACNE, DANDRUFF AND BAD ODORS” (ROQUETTE FRERES, priority 2019, published 2022).

For this experiment, the system named is Malassezia furfur strain. The experiment in a line: Example 2: microbial population count over 28 days after contamination (microtiter method, TTC). It is filed as cell-based. Particulars: for Number of colony forming strains after: 24 h / Number of colony forming strains after: 7 days / Number of colony forming strains after: 14 days / Number of colony forming strains after: 21 days / Number of colony forming strains after: 28 days: 22° C. The procedure:
The samples are prepared under sterile conditions and deposited in microplates (2-ml wells) with the concentrations hereunder. Two analysis controls were produced: a positive control corresponding to 0.5% Phenonip®; a negative control consisting of 0.85% physiological saline solution. Samples and controls are contaminated by a Malassezia furfur fungal strain with around 1.50×10^4 to 3.80×10^4 colony forming units per milliliter, denoted cfu/ml. After contamination, the samples are carefully mixed by suction-discharge cycles in order to ensure a uniform distribution of the microorganism. The whole is incubated at 22° C. during 28 days. The microbial population is sampled and counted at 24 hours, 7, 14, 21 and 28 days for the bacterial strain. The contaminated samples are collected and then deposited in serial dilutions in microtiter plates, in the presence of culture medium, which is a saline solution with 0.85% sodium chloride, and a dehydrogenase activity indicator reagent, which is 2,3,5-triphenyltetrazolium chloride (denoted TTC). The results are presented in the following pages with the variation of the microbial population over the 28 days of study, for the tested microbial strain. The measurements of microbial populations in the samples collected at each time, are carried out according to the following microtiter method, for one sample collection. In the 96 wells with a volume of 250 μL of a microtiter plate, 20 μL of the collected sample are diluted by a factor of 10 by dispersion in 180 μL of Letheen broth (Difco, ref. 268110) containing 1.5% of Tween 80 (Sigma, ref. […]) and TTC (Sigma, ref. […]). The microplate is incubated for 48 hours at 32.5° C., and the growth of the microorganisms is monitored by the color change, from colorless to red/pink. The highest reciprocal dilution indicating a growth makes it possible to determine the log number of each microorganism at each time. The measurements of microbial populations taken at each collection time are expressed as colony forming units/ml.

Turning to `O[C@@H]1CO[C@H]2[C@@H]1OC[C@@H]2O` [isosorbide, 1,4-3,6-dianhydrosorbitol], the “effect on the strain (conclusion in words)” value is “bactericide”. In addition, for the setting “after 24 hours”, the “colony forming strain observed” value is given as “no colony forming strain is observed”. Besides, where the note is “dose of isosorbide 1%”, the “Number of colony forming strains after: 24 h” value (shortened to “Number … 24 h”) was 0 colony forming units/ml, the “Number of colony forming strains after: 7 days” value (“Number … 7 days” for short) came out at 0 colony forming units/ml, the “Number of colony forming strains after: 14 days” value (from here on “Number … 14 days”) is on record as 0 colony forming units/ml and the “Number of colony forming strains after: 21 days” value (shortened to “Number … 21 days”) was 0 colony forming units/ml. The “Number of colony forming strains after: 28 days” value (“Number … 28 days” below) (dose of isosorbide 1%) was 0 colony forming units/ml. Under “dose of isosorbide 5%”, the “Number … 24 h” value is 0 colony forming units/ml, the “Number … 7 days” value is given as 0 colony forming units/ml, the “Number … 14 days” value is reported as 0 colony forming units/ml and the “Number … 21 days” value came to 0 colony forming units/ml. The “Number … 28 days” value (dose of isosorbide 5%) is 0 colony forming units/ml. For the setting “dose of isosorbide 9%”, the “Number … 24 h” value worked out at 0 colony forming units/ml, the “Number … 7 days” value worked out at 0 colony forming units/ml, the “Number … 14 days” value is listed as 0 colony forming units/ml and the “Number … 21 days” value was found to be 0 colony forming units/ml. For the same compound, the “Number … 28 days” value (dose of isosorbide 9%) came out at 0 colony forming units/ml.
